In patent US7994209B2, “3-phenoxymethylpyrrolidine compounds” (Theravance, Inc., priority 2009, dated 2011):
pKi: −log10 of the molar value. Marks after values point to notes of the source that are not given here.

Legend:
hNET [1] = biological target: T1, hNET (Homo sapiens, UniProt P23975); test: hNET membrane radioligand binding assay (3H-nisoxetine), Assay 1
hSERT [2] = biological target: T2, hSERT (Homo sapiens, UniProt P31645); test: fluorescence-based serotonin reuptake inhibition assay (Tsuruda et al. 2010; data indicated by an asterisk); format: cell-based; design: expressed in transfected cells; host or cells: HEK-293; details: fluorescence-based assay (values with asterisk), read-out: SERT pIC50 (converted)
hNET [3] = biological target: T1, hNET; test: fluorescence-based norepinephrine reuptake inhibition assay (Tsuruda et al. 2010; data indicated by an asterisk); format: cell-based; design: expressed in transfected cells; host or cells: HEK-293; details: norepinephrine reuptake inhibition, fluorescence-based assay (values with asterisk); for IC50: read-out: NET pIC50 (converted)
hSERT [4] = biological target: T2, hSERT; test: hSERT membrane radioligand binding assay (3H-citalopram), Assay 1; details: SERT pKi, hSERT HEK-293 membranes, 1.0 nM 3H-citalopram; values given as lower bounds

T1 sequence (P23975 whole entry): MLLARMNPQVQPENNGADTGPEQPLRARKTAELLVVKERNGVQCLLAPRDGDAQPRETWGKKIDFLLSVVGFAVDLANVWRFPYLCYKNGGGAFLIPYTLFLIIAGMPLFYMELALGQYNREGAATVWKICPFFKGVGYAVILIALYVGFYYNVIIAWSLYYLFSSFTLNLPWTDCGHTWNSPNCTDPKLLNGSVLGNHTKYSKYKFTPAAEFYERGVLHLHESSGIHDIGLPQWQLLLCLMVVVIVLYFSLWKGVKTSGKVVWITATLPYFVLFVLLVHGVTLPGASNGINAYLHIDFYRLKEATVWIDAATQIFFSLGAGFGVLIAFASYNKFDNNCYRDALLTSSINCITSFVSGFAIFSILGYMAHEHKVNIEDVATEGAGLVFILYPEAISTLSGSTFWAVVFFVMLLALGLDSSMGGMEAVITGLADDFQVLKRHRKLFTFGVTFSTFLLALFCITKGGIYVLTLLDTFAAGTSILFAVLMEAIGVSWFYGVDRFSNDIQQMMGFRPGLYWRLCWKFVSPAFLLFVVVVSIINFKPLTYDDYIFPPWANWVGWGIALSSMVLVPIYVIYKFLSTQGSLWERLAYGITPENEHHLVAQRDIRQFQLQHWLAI
T2 sequence (P31645 whole entry): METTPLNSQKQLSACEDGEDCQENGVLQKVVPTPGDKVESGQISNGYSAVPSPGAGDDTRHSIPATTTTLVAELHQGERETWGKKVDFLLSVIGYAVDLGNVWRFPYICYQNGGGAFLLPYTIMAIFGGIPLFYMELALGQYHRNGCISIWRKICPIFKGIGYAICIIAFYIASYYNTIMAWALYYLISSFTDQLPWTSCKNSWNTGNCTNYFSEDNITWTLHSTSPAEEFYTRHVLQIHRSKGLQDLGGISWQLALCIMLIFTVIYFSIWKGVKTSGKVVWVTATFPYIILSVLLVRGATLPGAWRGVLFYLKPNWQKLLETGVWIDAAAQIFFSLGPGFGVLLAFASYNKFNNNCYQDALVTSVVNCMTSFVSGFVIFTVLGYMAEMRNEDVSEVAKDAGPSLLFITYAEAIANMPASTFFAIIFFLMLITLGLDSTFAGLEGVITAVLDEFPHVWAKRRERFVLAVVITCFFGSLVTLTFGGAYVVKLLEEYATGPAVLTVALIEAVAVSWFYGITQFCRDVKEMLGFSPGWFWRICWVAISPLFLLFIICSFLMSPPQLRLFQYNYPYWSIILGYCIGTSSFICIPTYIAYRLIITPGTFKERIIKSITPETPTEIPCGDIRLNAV

| pKi (hNET [1]) | IC50 (hSERT [2]) [nM] | IC50 (hNET [3]) [nM] | pKi (hSERT [4]) | NET pIC50 (hNET [3]) | SMILES |
| --- | --- | --- | --- | --- | --- |
| ≥ 8.00 | ≤ 10 | ≤ 10 | ≥ 8.00 | – | CCC[C@@H](Oc1cc(Cl)cc(Cl)c1)[C@@H]1CCNC1 [Example 4-9, (R)-3-[(R)-1-(3,5-Dichlorophenoxy)butyl]pyrrolidine] |
| ≥ 8.00 | ≤ 100 | ≤ 100 | ≥ 8.00 | – | CCC[C@@H](Oc1cccc(Cl)c1C(F)(F)F)[C@@H]1CCNC1 [Example 4-71, (R)-3-[(R)-1-(3-Chloro-2-trifluoromethylphenoxy)butyl]pyrrolidine] |
| ≥ 8.00 | ≤ 100 | ≤ 10 | ≥ 8.00 | – | CC(C)[C@H](Oc1c(Cl)cccc1Cl)[C@H]1CCNC1 [Example 6-28, (S)-3-[(S)-1-(2,6-Dichlorophenoxy)-2-methylpropyl]pyrrolidine] |
| ≥ 8.00 | ≤ 100 | ≤ 10 | ≥ 8.00 | – | CC(C)[C@H](Oc1cccc(Cl)c1C(F)(F)F)[C@H]1CCNC1 [Example 6-49, (S)-3-[(S)-1-(3-Chloro-2-trifluoromethylphenoxy)-2-methylpropyl]pyrrolidine] |
| ≥ 8.00 | ≤ 100 | ≤ 10 | ≥ 8.00 | – | CC(C)[C@H](Oc1ccc(Cl)cc1C(F)(F)F)[C@H]1CCNC1 [Example 6-51, (S)-3-[(S)-1-(4-Chloro-2-trifluoromethylphenoxy)-2-methylpropyl]pyrrolidine] |
| ≥ 8.00 | ≤ 10 | ≤ 10 | ≥ 8.00 | – | CC(C)C[C@H](Oc1cccc(Cl)c1Cl)[C@H]1CCNC1 [Example 9, (S)-3-[(S)-1-(2,3-Dichlorophenoxy)-3-methylbutyl]pyrrolidine] |
| ≥ 8.00 | ≤ 10 | ≤ 10 | ≥ 8.00 | – | CC(C)C[C@H](Oc1cccc(Cl)c1Cl)[C@@H]1CCNC1 [Example 10-24, (R)-3-[(S)-1-(2,3-Dichlorophenoxy)-3-methylbutyl]pyrrolidine] |
| ≥ 8.00 | ≤ 10 | ≤ 10 | ≥ 8.00 | – | CC(C)C[C@H](Oc1cccc(F)c1Cl)[C@@H]1CCNC1 [Example 10-28, (R)-3-[(S)-1-(2-Chloro-3-fluorophenoxy)-3-methylbutyl]pyrrolidine] |
| ≥ 8.00 | ≤ 10 | ≤ 10 | ≥ 8.00 | – | Cc1c(Cl)cccc1O[C@@H](CC(C)C)[C@@H]1CCNC1 [Example 10-32, (R)-3-[(S)-1-(3-Chloro-2-methylphenoxy)-3-methylbutyl]pyrrolidine] |
| ≥ 8.00 | ≤ 10 | ≤ 10 | ≥ 8.00 | – | Cc1c(Cl)cccc1O[C@@H](CC(C)C)[C@H]1CCNC1 [Example 10-33, (S)-3-[(S)-1-(3-Chloro-2-methylphenoxy)-3-methylbutyl]pyrrolidine] |
| ≥ 8.00 | ≤ 100 | ≤ 10 | ≥ 8.00 | – | CC(C)C[C@@H](Oc1c(Cl)cccc1Cl)[C@H]1CCNC1 [Example 10-55, (S)-3-[(R)-1-(2,6-Dichlorophenoxy)-3-methylbutyl]pyrrolidine] |
| ≥ 8.00 | ≤ 100 | ≤ 100 | ≥ 8.00 | – | CC(C)C[C@H](Oc1c(Cl)cccc1Cl)[C@@H]1CCNC1 [Example 10-56, (R)-3-[(S)-1-(2,6-Dichlorophenoxy)-3-methylbutyl]pyrrolidine] |
| ≥ 8.00 | ≤ 10 | ≤ 10 | ≥ 8.00 | – | CC(C)C[C@H](Oc1cc(Cl)cc(Cl)c1)[C@@H]1CCNC1 [Example 10-80, (R)-3-[(S)-1-(3,5-Dichlorophenoxy)-3-methylbutyl]pyrrolidine] |
| ≥ 8.00 | ≤ 100 | ≤ 10 | ≥ 8.00 | – | Clc1ccccc1O[C@@H](C1CC1)[C@H]1CCNC1 [Example 16-1, (S)-3-[(S)-(2-Chlorophenoxy)cyclopropylmethyl]pyrrolidine] |
| ≥ 8.00 | ≤ 100 | ≤ 10 | ≥ 8.00 | – | Clc1ccccc1O[C@H](C1CC1)[C@H]1CCNC1 [Example 16-2, (S)-3-[(R)-(2-Chlorophenoxy)cyclopropylmethyl]pyrrolidine] |
| ≥ 8.00 | ≤ 10 | ≤ 10 | ≥ 8.00 | – | Fc1c(Cl)cccc1O[C@@H](C1CC1)[C@H]1CCNC1 [Example 16-11, (S)-3-[(S)-(3-Chloro-2-fluorophenoxy)cyclopropylmethyl]pyrrolidine] |
| ≥ 8.00 | ≤ 10 | ≤ 10 | ≥ 8.00 | – | Cc1cccc(O[C@@H](C2CC2)[C@H]2CCNC2)c1C [Example 16-12, (S)-3-[(S)cyclopropyl-(2,3-dimethylphenoxy)-methyl]pyrrolidine] |
| ≥ 8.00 | ≤ 100 | ≤ 10 | ≥ 8.00 | – | CCOc1cc(Cl)ccc1O[C@@H](C1CC1)[C@H]1CCNC1 [Example 16-41, (S)-3-[(S)-(4-Chloro-2-ethoxyphenoxy)cyclopropylmethyl]pyrrolidine] |

| pKi (hNET [1]) | IC50 (hSERT [2]) [nM] | IC50 (hNET [3]) [nM] | pKi (hSERT [4]) | NET pIC50 (hNET [3]) | SMILES |
| --- | --- | --- | --- | --- | --- |
| ≥ 7.00 | ≤ 100 | ≤ 100 | ≥ 8.00 | – | CCOc1cc(Cl)ccc1O[C@H](C1CC1)[C@H]1CCNC1 [Example 16-42, (S)-3-[(R)-(4-Chloro-2-ethoxyphenoxy)cyclopropylmethyl]pyrrolidine] |
| ≥ 8.00 | ≤ 10 | ≤ 10 | ≥ 8.00 | – | Fc1ccc(O[C@@H](C2CC2)[C@H]2CCNC2)c(F)c1F [Example 16-46, (S)-3-[(S)cyclopropyl-(2,3,4-trifluorophenoxy)methyl]pyrrolidine] |
| ≥ 7.00 | ≤ 10 | ≤ 10 | ≥ 8.00 | – | Fc1ccc(O[C@H](C2CC2)[C@H]2CCNC2)c(F)c1F [Example 16-47, (S)-3-[(R)cyclopropyl-(2,3,4-trifluorophenoxy)methyl]pyrrolidine] |
| ≥ 8.00 | ≤ 10 | ≤ 10 | ≥ 8.00 | – | Cc1ccc(O[C@@H](C2CC2)[C@H]2CCNC2)c(F)c1F [Example 16-50, (S)-3-[(S)cyclopropyl-(2,3-difluoro-4-methylphenoxy)methyl]pyrrolidine] |
| ≥ 8.00 | ≤ 10 | ≤ 10 | ≥ 8.00 | – | Fc1c(Cl)ccc(O[C@@H](C2CC2)[C@H]2CCNC2)c1Cl [Example 16-52, (S)-3-[(S)cyclopropyl-(2,4-dichloro-3-fluorophenoxy)methyl]pyrrolidine] |
| ≥ 8.00 | ≤ 10 | ≤ 10 | ≥ 8.00 | – | Fc1ccc(O[C@@H](C2CC2)[C@H]2CCNC2)c(F)c1Cl [Example 16-53, (S)-3-[(S)-(3-Chloro-2,4-difluorophenoxy)cyclopropylmethyl]pyrrolidine] |
| ≥ 8.00 | ≤ 10 | ≤ 10 | ≥ 8.00 | – | COc1c(F)ccc(O[C@@H](C2CC2)[C@H]2CCNC2)c1F [Example 16-54, (S)-3-[(S)cyclopropyl-(2,4-difluoro-3-methoxyphenoxy)methyl]pyrrolidine] |
| ≥ 6.50 | ≤ 10 | ≤ 316 | ≥ 8.00 | – | COc1c(O[C@H](C2CC2)[C@H]2CCNC2)ccc(Cl)c1Cl [Example 16-56, (S)-3-[(R)cyclopropyl-(3,4-dichloro-2-methoxyphenoxy)methyl]pyrrolidine] |
| ≥ 8.00 | ≤ 10 | ≤ 10 | ≥ 8.00 | – | Fc1ccc(Cl)c(Cl)c1O[C@@H](C1CC1)[C@H]1CCNC1 [Example 16-59, (S)-3-[(S)cyclopropyl-(2,3-dichloro-6-fluorophenoxy)methyl]pyrrolidine] |
| ≥ 8.00 | ≤ 10 | ≤ 10 | ≥ 8.00 | – | Fc1ccc(Cl)c(Cl)c1O[C@H](C1CC1)[C@H]1CCNC1 [Example 16-60, (S)-3-[(R)cyclopropyl-(2,3-dichloro-6-fluorophenoxy)methyl]pyrrolidine] |
| ≥ 8.00 | ≤ 100 | ≤ 10 | ≥ 8.00 | – | Cc1ccc(F)c(O[C@@H](C2CC2)[C@H]2CCNC2)c1Cl [Example 16-62, (S)-3-[(S)-(2-Chloro-6-fluoro-3-methylphenoxy)cyclopropylmethyl]pyrrolidine] |
| ≥ 8.00 | ≤ 100 | ≤ 10 | ≥ 8.00 | – | Cc1ccc(F)c(O[C@H](C2CC2)[C@H]2CCNC2)c1Cl [Example 16-63, (S)-3-[(R)-(2-Chloro-6-fluoro-3-methylphenoxy)cyclopropylmethyl]pyrrolidine] |
| – | ≤ 100 | ≤ 10 | – | – | Clc1cccc(Cl)c1OC(C1CCCC1)C1CCNC1 (stereo not shown) [Example 18-8, 3-[Cyclopentyl-(2,6-dichlorophenoxy)methyl]pyrrolidine] |
| – | ≤ 10 | ≤ 10 | – | – | Clc1cc(Cl)cc(OC(C2CCCC2)C2CCNC2)c1 (stereo not shown) [Example 18-9, 3-[Cyclopentyl-(3,5-dichlorophenoxy)methyl]pyrrolidine] |
| – | ≤ 100 | – | – | ≧8.0* | Clc1cc(Cl)cc(OC(C2CCCC2)C2CCNC2)c1 (stereo not shown) [Example 18-10, 3-[Cyclopentyl-(3,5-dichlorophenoxy)methyl]pyrrolidine] |
| – | ≤ 10 | ≤ 100 | – | – | Clc1ccc(OC(C2CCCC2)C2CCNC2)cc1 (stereo not shown) [Example 18-11, 3-[(4-Chlorophenoxy)cyclopentylmethyl]pyrrolidine] |
| – | ≤ 100 | ≤ 100 | – | – | Fc1ccc(OC(C2CCCC2)C2CCNC2)cc1 (stereo not shown) [Example 18-12, 3-[Cyclopentyl-(4-fluorophenoxy)methyl]pyrrolidine] |
